Data taken from patent US11660319B2, “Compositions comprising bacterial strains” (priority 2017, dated 2023).

What was measured:
HDAC = HDAC inhibition on whole HT-29 cells and HT-29 cell lysate; type: cell-based; conditions: for total HDAC activity, pure substances: HT-29, whole cells or lysate not told apart in the sentence
Method: Bacterial culture and cell-free supernatant collection Pure cultures of bacteria were grown anaerobically in YCFA broth until they reached their stationary growth phase. Cultures were centrifuged at 5,000×g for 5 minutes and the cell-free supernatant (CFS) was filtered using a 0.2 μM filter (Millipore, UK). 1 mL aliquots of the CFS were stored at −80° C. until use. Sodium butyrate, hexanoic and valeric acid were obtained from Sigma Aldrich (UK) and suspensions were prepared in YCFA broth.
To investigate which metabolites were responsible for the strain-induced HDAC inhibition, different concentrations of hexanoic acid, valeric acid and sodium butyrate were measured for their HDAC inhibition on whole HT-29 cells and on HT-29 cell lysate.

SHSY5Y = experiment: Neurite outgrowth: microscopy and MAP2 gene expression (qPCR); type: cell-based, human; conditions: for neurite outgrowth / neuron-like phenotype: undifferentiated SHSY-5Y cells, 10% bacteria supernatant, 200 uM hexanoic acid or 200 uM valproic acid, 17 hrs
Method: SHSY5Y were plated in 10 cm petri dishes a density of 2×10^6 cells. After 24 h cells were treated in differentiation medium (growth medium containing 1% FBS without RA) with 10% bacteria supernatants or YCFA+, 10 uM RA, 200 uM hexanoic acid or 200 uM valproic acid, for 17 hrs. There after representative images were taken using phase contrast EVOS XL core microscope at 40×/0.65 magnification. Cells were collected, and total RNA was isolated according to RNeasy mini kit protocol (Qiagen). cDNAs were made using the high capacity cDNA reverse transcription kit (Applied Biosystems). Gene expression was measured using qPCR. GAPDH was used as internal control. Fold change was calculated according to the 2^(−ΔΔct) method.
Cells were seeded onto 8 well chamber slides (Marienfeld Laboratory Glassware) at 5×10^4 cells/well overnight and were treated with 10% bacterial supernatant for 24 hrs. For differentiation, cells were treated with 10 nM Retinoic acid for 5 days before treating with bacterial supernatant. Cells were then fixed with 4% paraformaldehyde in PBS for 20 minutes at room temperature (RT). Fixed cells were washed with PBS, and permeabilized with 1% Triton X-100 in PBS for 10 minutes. After washing with PBS, the slides were incubated with blocking buffer (4% BSA/PBS) for 1 hr at RT before adding anti-MAP2 antibody (sc-74421, Santa Cruz Biotechnology Inc) diluted in 1% BSA/PBS for 12 hr at 4° C. They were then washed twice with PBS, followed by incubation with Alexa Flour 488 conjugated anti-mouse (Molecular Probes Inc) and Alexa Flour 594 conjugated Phalloidin (ab 176757, Abcam) for 1 hr at RT. After washing 3× with PBS, the slides were mounted with Vectorshield[…] containing DAPI (Sigma, Aldrich). Slides were viewed using a Zeiss Axioscope microscope equipped with a 63×/1.2 W Korr objective and filter sets suitable for detection of the fluorochromes used. Manual exposure times for the digital acquisition of images immuno-labelled with MAP-2 were kept constant allowing comparison between different wells and treatments. Phalloidin (F-actin) and DAPI exposure times varied to suit the field of view. Randomised fields of view were acquired using a QImaging camera controlled by Image Pro Plus software. Images were saved as TIFs and opened in Adobe Photoshop CC 2015.1.2 and overlays of the MAP-2, DAPI and Phalloidion images overlaid and merged. Representative images were selected to illustrate the differences in abundance and location of the proteins examined

[1] = test system: SH-SY5Y neuroblastoma cells; experiment: Neuroprotection / cell viability of neuroblastoma cells treated with MPP (CCK-8); type: cell-based, human; conditions: for protection compared to YCFA-MPP+ treated sample: RA-differentiated SHSY-5Y cells treated with MPP+
Method: Once grown the SH-SY5Y neuroblastoma cells were plated on 96-well plate at 11,000 cells/well and incubated for 2 days. The cells were then transferred to differentiation medium (which contains FBS at 1%) and 10 uM retinoic acid (Sigma Aldrich, cat. n. R2625-100MG). Differentiation medium was replaced every other day and cells were harvested at 7 day of differentiation. Cells were pre-treated with or without MPP (Sigma Aldrich, cat. n. D048-1G) for 8 hours. Subsequently, cells were treated with 10% bacterial supernatant and incubated overnight. Cell viability was measured by using CCK-8 reagent (Sigma Aldrich, Cell Counting Kit-8, cat. n. 96992-3000TESTS-F) and read at 450 nm wavelength.

BALBc mice [2] = experiment: Ex vivo gene expression in colon and ileum of mice fed with bacteria; parameters: species or system mouse
Method: Animals were allowed to habituate to their holding room for one week after arrival into the animal unit. They receive oral gavage (200 μL dose) of live biotherapeutics at a dose of 1×10^9 CFU for 6 consecutive days between 15:00 and 17:00. On day 7, the animals are decapitated, and tissues are harvested for experimentation. The in vitro results were compared with data from the ex vivo parallel analysis on the gut of mice fed with […] expression of TJP2 and occludin was quantified in the colon and ileum. […] Total RNA was extracted using the mirVanaTM miRNA Isolation kit (Ambion/Llife technologies, Paisley, UK) and DNase treated (Turbo DNA-free, Ambion/life technologies) according to the manufacturers recommendations. RNA was quantified using NanoDropTM spectrophotometer (Thermo Fisher Scientific Inc., Wilmington, Del., USA) according to the manufacturer's instructions. RNA quality was assessed using the Agilent Bioanalyzer (Agilent, Stockport, UK) according to the manufacturer's procedure and an RNA integrity number (RIN) was calculated. […] RNA was reverse transcribed to cDNA using the Applied Biosystems High Capacity cDNA kit (Applied Biosystems, Warrington, UK) according to manufacturer's instructions. Briefly, Multiscribe Reverse Transcriptase (50 U/μL) (1)(2)(1)(10) was added as part of RT master mix, incubated for 25° C. for 10 min, 37° C. for 2 h, 85° C. for 5 min and stored at 4° C. Quantitative PCR was carried out using probes (6 carboxy fluorescein-FAM) designed by Applied Biosystems to mouse specific targeted genes, while using β-actin as an endogenous control. Amplification reactions contained 1 μl cDNA, 5 μl of the 2× PCR Master mix (Roche), 900 nM of each primer and were brought to a total of 10 μl by the addition of RNase-free water. All reactions were performed in triplicate using 96-well plates on the LightCycler®480 System. Thermal cycling conditions were as recommended by the manufacturer (Roche) for 55 cycles. To check for amplicon contamination, each run contained no template controls in triplicate for each probe used. Cycle threshold (Ct) values were recorded. Data was normalized using β-actin and transformed using the 2-ΔΔCT method and presented as a fold change vs. control group.

BALBc mice [3] = experiment: Monoamine analysis in brainstem of mice fed with bacteria (HPLC); type: in vivo, mouse; conditions: 1×10^9 CFU oral gavage 6 days
Method: Neurotransmitter concentration was analysed by HPLC on samples from the brainstem. Briefly, brainstem tissue was sonicated in 500 μl of chilled mobile phase spiked with 4 ng/40 μl of N-Methyl 5-HT (Sigma Chemical Co., UK) as internal standard. The mobile phase contained 0.1 M citric acid, 5.6 mM octane-1-sulphonic acid (Sigma), 0.1 M sodium dihydrogen phosphate, 0.01 mM EDTA (Alkem/Reagecon, Cork) and 9% (v/v) methanol (Alkem/Reagecon) and was adjusted to pH 2.8 using 4 N sodium hydroxide (Alkem/Reagecon). Homogenates were then centrifuged for 15 min at 22,000×g at 4° C. and 40 μl of the supernatant injected onto the HPLC system which consisted of a SCL 10-Avp system controller, LECD 6A electrochemical detector (Shimadzu), a LC-10AS pump, a CTO-10A oven, a SIL-10A autoinjector (with sample cooler maintained at 40 C) and an online Gastorr Degasser (ISS, UK). A reverse-phase column (Kinetex 2.6 u C18 100×4.6 mm, Phenomenex) maintained at 30° C. was employed in the separation (Flow rate 0.9 ml/min). The glassy carbon working electrode combined with an Ag/AgCl reference electrode (Shimdazu) operated a +0.8 V and the chromatograms generated were analyzed using Class-VP 5 software (Shimadzu). The neurotransmitters were identified by their characteristic retention times as determined by standard injections, which run at regular intervals during the sample analysis. The ratios of peak heights of analyte versus internal standard were measured and compared with standard injection. Results were expressed as ng of neurotransmitter per g fresh weight of tissue.

[4] = test system: HT29-mtx epithelial, mucin-producing cell monolayers; experiment: IL-8 secretion of HT29-mtx monolayers; type: cell-based; conditions: bacterial supernatants 24 h; compared to untreated and YCFA-treated cells
Description: HT29-mtx epithelial, mucin-producing cell monolayers were used as an in vitro model to evaluate gut barrier disruption and immune stimulation following treatment with MRx0005 and MRx0029.

mouse Splenocytes = experiment: Spleen cytokine assay ex vivo (LPS or ConA stimulation); type: in vivo
Method: Spleens were collected immediately in 5 mL RPMI media following sacrifice and cultured immediately. Spleen cells were first homogenised in this RPMI media, followed by 5 mins incubation with 1 ml of RBC lysis buffer (11814389001 ROCHE, Sigma). A further 10 ml of RPMI media was added, followed by 200G centrifugation for 5 mins. The supernatant was then filtered through 40 um strainer. Cells were counted and seeded (4,000,000/mL media). After 2.5 h of adaptation, cells were stimulated with lipopolysaccharide (LPS-2 μg/ml) or concanavalin A (ConA-2.5 μg/ml) for 24 h. Following stimulation, the supernatants were harvested to assess the cytokine release using Proinflammatory Panel 1 (mouse) V-PLEX Kit (Meso Scale Discovery, Maryland, USA) for TNFα, IL-10, IL-1β, Interferon γ, CXCL2 and IL6. The analyses were performed using MESO QuickPlex SQ 120, SECTOR Imager 2400, SECTOR Imager 6000, SECTOR S 600.
The ex-vivo splenocyte assay involves challenging the splenocytes (cells isolated from the spleen—a main organ involved in immune defense), with a bacterio- or viral-mimetic challenge.

[5] = test system: HT29-mtx epithelial, mucin-producing cell monolayers; experiment: mRNA expression of tight junction proteins in HT29-mtx (qRT-PCR); type: cell-based
Method: Total RNA was extracted using the RNeasy mini kit (Qiagen, Manchester, JUK) according to the manufacturer's instructions, and the RNA concentration determined by absorbance at 260/280 nm using a spectrophotometer (nano-Drop ND-1000; Thermo Scientific, Wilmington, Del.). For mRNA expression analysis, cDNA was prepared from total RNA using the High-Capacity cDNA reverse transcription kit (Applied Biosystems, UK) according to the manufacturer's instructions. The reverse transcription reactions were performed in a Thermo cycler (Biometra, Germany) at 25° C. for 10 min, 37° C. for 120 min, and 85° C. for 5 min, hold on at 4° C. Resulting cDNA was amplified in duplicates by the SYBR-Green PCR assay, and products were detected on QuantStudio 6 flex real-time PCR machine (Applied Biosystems, UK) using a standardised profile (initial denaturation of 95° C. for 10 minutes, followed by 40 cycles of 15 seconds of denaturation at 95° C. and 60 seconds of annealing/extension at 60/65° C., depending on the primers. A dissociation stage was added after the 40 cycles to generate a melting curve. Analysis was performed using the Applied Biosystems QuantStudio Real-Time PCR Software v1.2. The primer sequences for Actin, Villin, Occludin TJP1 and TJP2 are provided in the sequence listing.

BALBc mice [6] = experiment: Gene expression in hippocampus, amygdala and prefrontal cortex (qPCR); type: in vivo, mouse
Method: Animals were allowed to habituate to their holding room for one week after arrival into the animal unit. They receive oral gavage (200 μL dose) of live biotherapeutics at a dose of 1×10^9 CFU for 6 consecutive days between 15:00 and 17:00. On day 7, the animals are decapitated, and tissues are harvested for experimentation.
Total RNA was extracted using the mirVana™ miRNA Isolation kit (Ambion/Llife technologies, Paisley, UK) and DNase treated (Turbo DNA-free, Ambion/life technologies) according to the manufacturers recommendations. RNA was quantified using NanoDrop™ spectrophotometer (Thermo Fisher Scientific Inc., Wilmington, Del., USA) according to the manufacturer's instructions. RNA quality was assessed using the Agilent Bioanalyzer (Agilent, Stockport, UK) according to the manufacturer's procedure and an RNA integrity number (RIN) was calculated. RNA with RIN value >7 was used for subsequent experiments. RNA was reverse transcribed to cDNA using the Applied Biosystems High Capacity cDNA kit (Applied Biosystems, Warrington, UK) according to manufacturer's instructions. Briefly, Multiscribe Reverse Transcriptase (50 U/μL) (1)(2)(1)(10) was added as part of RT master mix, incubated for 25° C. for 10 min, 37° C. for 2 h, 85° C. for 5 min and stored at 4° C. Quantitative PCR was carried out using probes (6 carboxy fluorescein-FAM) designed by Applied Biosystems to mouse specific targeted genes, while using β-actin as an endogenous control. Amplification reactions contained 1 μl cDNA, 5 μl of the 2× PCR Master mix (Roche), 900 nM of each primer and were brought to a total of 10 μl by the addition of RNase-free water. All reactions were performed in triplicate using 96-well plates on the LightCycler®480 System. Thermal cycling conditions were as recommended by the manufacturer (Roche) for 55 cycles. To check for amplicon contamination, each run contained no template controls in triplicate for each probe used. Cycle threshold (Ct) values were recorded. Data was normalized using β-actin and transformed using the 2-ΔΔCT method and presented as a fold change vs. control group.
Expression of genes for neurotransmitter receptors [serotonin receptor 1a(5-HTR1a), dopamine D1 receptor, GABA receptor subunit B1, GABAA receptor, NMDA2A (Grin2A) and NMDA2B (Grin2b) receptor], inflammatory markers [IL-1β, IL6, CD11b, TNFα and TLR4], and endocrine markers [corticosterone releasing factor (CRF), corticosterone releasing factor receptors 1 and 2 (CRFR1, CRFR2), brain-derived neurotrophin factor (BDNF), vasopressin receptor, oxytocin receptor, glucocorticoid receptor and mineralocorticoid receptor] were analysed in brain tissue from the hippocampus, amygdala and prefrontal cortex.

CCCCCC(=O)O [hexanoic acid]
total HDAC activity, pure substances (HDAC): did not show significant inhibitory activity
neurite outgrowth / neuron-like phenotype (SHSY5Y): enhance neurite outgrowth

O=c1c(O)c(-c2ccc(O)c(O)c2)oc2cc(O)cc(O)c12 [quercetin, reference compound]
protection compared to YCFA-MPP+ treated sample [1]: about the same

CCCC(=O)[O-].[Na+] [sodium butyrate, reference compound]
total HDAC activity, pure substances (HDAC): significant HDAC inhibition
HDAC inhibition, HT29 cell lysate (HDAC; HT-29 cell lysate): significant (P<0.05) inhibition
HDAC inhibition, HT29 whole cell (HDAC; whole HT-29 cells): significant (P<0.05) inhibition

CCCC(CCC)C(=O)O [valproic acid, reference compound]
neurite outgrowth / neuron-like phenotype (SHSY5Y): increases neurite outgrowth
MAP2 expression (SHSY5Y; undifferentiated neuroblastoma cells, qPCR, GAPDH internal control): increase

Parabacteroides distasonis [MRx0005]
proliferation of neurons ([1]; 10% bacterial supernatant, without MPP): increase
protection compared to YCFA-MPP+ treated sample [1]: about 20%
mitochondria metabolic activity ([1]; RA-differentiated SHSY-5Y cells, per se (no MPP+)): increase
IDO-1 expression (BALBc mice [2]; colon): increase
expression of IDO1 (BALBc mice [2]; ileum): increased
expression of Tph1 (BALBc mice [2]; ileum): increased
dopamine in brain (BALBc mice [3]): decrease
secretion of IL-8 [4]: even lower secretion
interleukin-6 in splenocytes (mouse Splenocytes; challenge with LPS): reduced
levels of interferon-γ in splenocytes (mouse Splenocytes; challenge with LPS): significantly reduced
tumour necrosis factor in splenocytes (mouse Splenocytes; challenge with LPS): reduced
levels of the chemoattractant CXCL1 (mouse Splenocytes; splenocytes): increase
gene expression of tight junction proteins [5]: did not alter
expression of BDNF (BALBc mice [6]; amygdala): significantly increased
expression of CD11b (BALBc mice [6]; amygdala): increase
expression of GABBR1 (BALBc mice [6]; amygdala): increased
expression of GABRA2 (BALBc mice [6]; amygdala): significantly increased
expression of Grin2a (BALBc mice [6]; amygdala): reduced
expression of Grin2b (BALBc mice [6]; amygdala): reduced
expression of IL-6 (BALBc mice [6]; amygdala): reduced
expression of BDNF (BALBc mice [6]; prefrontal cortex): significant increase
